Patent US10370366B2 (Flatley Discovery Lab, LLC, priority 2013, dated 2019)

Biological target: T1, human F508del CFTR (Homo sapiens, UniProt P13569, DEL508-508)
T1 construct: expressed in transfected cells; host or cells: Fisher Rat Thyroid (FRT) cells
Assay: CFTR-YFP High Throughput Assay
Assay type: cell-based
Conditions: FRT cells expressing human F508del CFTR and YFP; for Emax: EMax normalized to the positive control, read-out: % Efficacy
Summary of the method: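 FRT cells stably co-expressing human F508del CFTR and halide-sensitive YFP-H148Q/I152L; for correction, compound (2 nM-40 μM) incubated 24-26 h at 37° C, washed, then stimulated 60-120 min at RT with 20 μM forskolin plus 30 μM potentiator P3. Iodide-induced YFP quench (Ex 500/Em 540 nm) recorded; quench rates least-squares fitted.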

T1 sequence (P13569 with tags, fused parts or gaps DEL508-508): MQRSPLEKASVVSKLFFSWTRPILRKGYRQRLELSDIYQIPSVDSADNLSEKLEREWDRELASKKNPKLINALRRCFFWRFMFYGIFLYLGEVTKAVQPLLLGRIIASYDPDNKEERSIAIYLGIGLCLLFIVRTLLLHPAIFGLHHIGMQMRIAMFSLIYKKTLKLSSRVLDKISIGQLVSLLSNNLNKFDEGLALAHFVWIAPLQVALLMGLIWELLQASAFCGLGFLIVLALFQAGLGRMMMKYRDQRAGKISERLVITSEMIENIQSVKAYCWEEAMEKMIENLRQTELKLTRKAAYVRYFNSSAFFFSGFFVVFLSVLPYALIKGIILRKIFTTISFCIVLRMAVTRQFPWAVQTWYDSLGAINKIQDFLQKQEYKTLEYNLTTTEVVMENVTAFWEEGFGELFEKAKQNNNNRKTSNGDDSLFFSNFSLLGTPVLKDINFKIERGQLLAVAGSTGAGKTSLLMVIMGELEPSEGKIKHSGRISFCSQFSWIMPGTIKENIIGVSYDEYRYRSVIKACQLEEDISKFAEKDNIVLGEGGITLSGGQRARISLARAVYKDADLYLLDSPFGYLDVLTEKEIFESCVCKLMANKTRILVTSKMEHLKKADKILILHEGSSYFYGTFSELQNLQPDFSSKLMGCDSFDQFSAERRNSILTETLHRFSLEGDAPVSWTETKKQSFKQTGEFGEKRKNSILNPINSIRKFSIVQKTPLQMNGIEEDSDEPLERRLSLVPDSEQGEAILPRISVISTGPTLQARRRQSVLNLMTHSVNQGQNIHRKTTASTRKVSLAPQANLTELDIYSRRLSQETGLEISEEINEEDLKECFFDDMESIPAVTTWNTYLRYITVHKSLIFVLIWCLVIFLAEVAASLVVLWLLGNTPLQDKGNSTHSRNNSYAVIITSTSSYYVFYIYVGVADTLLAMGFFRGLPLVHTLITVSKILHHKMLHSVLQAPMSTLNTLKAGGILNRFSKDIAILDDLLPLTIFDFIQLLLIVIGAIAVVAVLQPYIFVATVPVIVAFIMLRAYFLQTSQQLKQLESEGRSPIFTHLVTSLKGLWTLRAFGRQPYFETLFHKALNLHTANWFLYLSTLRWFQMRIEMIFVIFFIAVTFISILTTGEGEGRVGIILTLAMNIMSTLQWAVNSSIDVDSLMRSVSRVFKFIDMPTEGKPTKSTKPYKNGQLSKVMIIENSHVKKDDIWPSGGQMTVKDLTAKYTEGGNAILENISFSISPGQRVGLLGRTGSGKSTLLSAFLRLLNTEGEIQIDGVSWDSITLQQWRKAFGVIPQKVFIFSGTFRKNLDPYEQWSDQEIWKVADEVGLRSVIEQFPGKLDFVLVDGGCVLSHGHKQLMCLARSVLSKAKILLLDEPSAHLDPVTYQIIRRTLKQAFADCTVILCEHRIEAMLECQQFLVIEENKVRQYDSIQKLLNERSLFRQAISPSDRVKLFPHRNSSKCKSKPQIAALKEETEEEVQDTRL

SMILES | Emax [%] | EC50 [µM]
CCN(C(=O)c1nn(-c2nc3ccccc3s2)c(=O)c2c1c1ccccc1n2C)c1ccccc1 [Example 172, 3-(benzo[d]thiazol-2-yl)-N-ethyl-5-methyl-4-oxo-N-phenyl-4,5-dihydro-3H-pyridazino[4,5-b]indole-1-carboxamide] | 10 to 30 | 
CCN(C(=O)c1nn(-c2ccc(C)cc2)c(=O)c2c1c1ccccc1n2C1CCC1)c1ccccc1 [Example 219, 5-cyclobutyl-N-ethyl-4-oxo-N-phenyl-3-p-tolyl-4,5-dihydro-3H-pyridazino[4,5-b]indole-1-carboxamide] | 10 to 30 | 
CCN(C(=O)c1nn(C2CCN(S(=O)(=O)c3ccc4c(c3)OC(F)(F)O4)CC2)c(=O)c2c1c1ccccc1n2C)c1ccccc1 [Example 200, 3-(1-((2,2-difluorobenzo[d][1, 3]dioxol-5-yl)sulfonyl)piperidin-4-yl)-N-ethyl-5-methyl-4-oxo-N-phenyl-4,5-dihydro-3H-pyridazino[4,5-b]indole-1-carboxamide] | 30 to 80 | < 10
CCOc1ccc2c(-c3cccc(C#N)c3)nn(CC(=O)N(C)c3ccc4nc(C)oc4c3)c(=O)c2c1 [Example 109, 2-(4-(3-cyanophenyl)-7-ethoxy-1-oxophthalazin-2(1H)-yl)-N-methyl-N-(2-methylbenzo[d]oxazol-6-yl)acetamide] | > 80 | < 10
CCN(C(=O)Cn1nc(Cc2cccnc2)c2cc(C)ccc2c1=O)c1ccc2c(c1)OC(F)(F)O2 [Example 46, N-(2,2-difluorobenzo[d][1,3]dioxol-5-yl)-N-ethyl-2-(6-methyl-1-oxo-4-(pyridin-3-ylmethyl)phthalazin-2(1H)-yl)acetamide] | 30 to 80 | 
CCc1ccc(N(CC)C(=O)Cn2nc(Cc3cccnc3)c3ccc(OC)cc3c2=O)cc1 [Example 35, N-ethyl-N-(4-ethylphenyl)-2-(7-methoxy-1-oxo-4-(pyridin-3-ylmethyl)phthalazin-2(1H)-yl)acetamide] | 30 to 80 | 
CCN(C(=O)c1nn(-c2ccccc2)c(=O)c2c1c1ccccc1n2C)c1cccc(F)c1 [Example 175, N-ethyl-N-(3-fluorophenyl)-5-methyl-4-oxo-3-phenyl-4,5-dihydro-3H-pyridazino[4,5-b]indole-1-carboxamide] | 30 to 80 | > 20
CCN(C(=O)c1nn(-c2ccc(C)cc2)c(=O)c2c1c1ccccc1n2C)C1CC1 [Example 160, N-cyclopropyl-N-ethyl-5-methyl-4-oxo-3-(p-tolyl)-4,5-dihydro-3H-pyridazino[4,5-b]indole-1-carboxamide] | 30 to 80 | 
CCN(C(=O)c1nn(C[C@@H](O)COC)c(=O)c2c1c1ccccc1n2C)c1ccccc1 [Example 228, (R)-N-ethyl-3-(2-hydroxy-3-methoxypropyl)-5-methyl-4-oxo-N-phenyl-4,5-dihydro-3H-pyridazino[4,5-b]indole-1-carboxamide] | 30 to 80 | < 10
CCN(C(=O)c1nn(C[C@@H](O)COCc2ccccc2)c(=O)c2c1c1ccccc1n2C)c1ccccc1 [Example 230, (R)-3-(3-(benzyloxy)-2-hydroxypropyl)-N-ethyl-5-methyl-4-oxo-N-phenyl-4,5-dihydro-3H-pyridazino[4,5-b]indole-1-carboxamide] | 30 to 80 | < 10
Cc1ccc(-n2nc(Cn3ccnc3)c3c4ccccc4n(C)c3c2=O)cc1 [Example 242, 1-((1H-imidazol-1-yl)methyl)-5-methyl-3-(p-tolyl)-3,5-dihydro-4H-pyridazino[4,5-b]indol-4-one] | 30 to 80 | > 20
CCOc1cccc2c(=O)n(CC(=O)N(CC)c3ccc4c(c3)OC(F)(F)O4)nc(Cc3cccnc3)c12 [Example 58, N-(2,2-difluorobenzo[d][1,3]dioxol-5-yl)-N-ethyl-2-(5-ethoxy-1-oxo-4-(pyridin-3-ylmethyl)phthalazin-2(1H)-yl)acetamide] | 30 to 80 | < 10
CCc1ccc(N(CC)C(=O)Cn2nc(Cc3cccnc3)c3cccc(C)c3c2=O)cc1 [Example 30, N-ethyl-N-(4-ethylphenyl)-2-(8-methyl-1-oxo-4-(pyridin-3-ylmethyl)phthalazin-2(1H)-yl)acetamide] | 30 to 80 | 
